Results from US12414960B2, “Analogues of oleuropein and oleacein and uses thereof” (Attica Sciences Ltd., priority 2020, dated 2025).

Legend:
[1] = Deoxyribose degradation assay (hydroxyl radical scavenging); type: biochemical; conditions: NS = not statistically significant
Outline: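 Hydroxyl radicals from Fenton's reaction degrade 2-deoxyribose. Scavenging is measured as inhibition of this oxidation, read spectrophotometrically as pink chromogen absorbance at 532 nm.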

[2] = system: MCF-7 ER+ breast cancer cells; test: XTT cell growth assay, MCF-7 ER+; type: cell-based, human; conditions: NS = not statistically significant; for inhibition at 50 µM: Homo sapiens, MCF7, 24 h, read-out: Effectiveness to suppress MCF7 cell growth (cell growth inhibition)
Outline: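 MCF-7 ER+ cells grown 24 h in DMEM, then given 5, 10 or 50 μM compound in serum-free DMEM for 24 h. XTT reagent added for 4 h. Absorbance read at 450 nm with 630 nm reference; serum-free DMEM alone as negative control.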

[3] = system: MDA-MB-231 triple negative breast cancer cells; test: XTT cell growth assay, MDA-MB-231; type: cell-based, human; conditions: NS = not statistically significant; for inhibition at 50 µM: Homo sapiens, MDA-MB-231, 24 h, read-out: Effectiveness to suppress MDA-MB-231 cell growth (cell growth inhibition)
Outline: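 Cells grown 24 h in DMEM, then exposed 24 h to 5, 10 and 50 μM compound in serum-free DMEM. Viability read by XTT reduction to formazan after 4 h, absorbance at 450 nm with 630 nm reference; serum-free DMEM alone as negative control.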

[4] = Ferric reducing antioxidant power (FRAP) assay; type: biochemical; conditions: NS = not statistically significant
Text: Reducing power is associated with antioxidant activity and may serve as a significant reflection of the antioxidant activity. Compounds with reducing power indicate that they are electron donors and can reduce the oxidized intermediates of lipid peroxidation processes, so that they can act as primary and secondary antioxidants.
In this assay, the yellow color of the test solution changes to various shades of green and blue depending on the reducing power of each compound. Presence of reducers causes the conversion of the Fe3+/ferricyanide complex used in this method to the ferrous form which when it reacts with iron chloride it gives a complex which absorbs at 700 nm. The higher the absorption at 700 nm, the greater the reducing capacity (FIG. 6).
The ferric reducing antioxidant capacity of the GS compounds was investigated by using the potassium ferricyanide-ferric chloride method (Tundis, Rosa et al. LWT—Food Science and Technology, 2013, 53: 370-377). Briefly, 0.2 mL of each of the GS compounds, 2.5 mL of phosphate buffer (0.2 M, pH 6.6), and 2.5 mL of potassium ferricyanide K3Fe(CN)6 (1%) were mixed and incubated at 50° C. for 20 min, to reduce ferricyanide into ferrocyanide. The reaction was stopped by adding 2.5 mL of 10% (w/v) trichloroacetic acid followed by centrifugation at 1000 rpm for 10 min. Finally, 2.5 mL of the upper layer was mixed with 2.5 mL of distilled water and 0.5 mL of FeCl3 (0.1%) and the absorbance was measured at 700 nm.

Deoxyribose Degradation Assay IC50 [1] [μg extract/mL]	SMILES	Effectiveness to suppress MCF7 cell growth (cell growth inhibition) ([2]; 50 uM, 24 h)	inhibition at 50 µM [2] [%]	inhibition at 50 µM [3] [%]	Ferric Reducing Power Antioxidant Assay RP0.5AU [4] [μg extract/mL]	Effectiveness to suppress MDA-MB-231 cell growth (cell growth inhibition) ([3]; 50 uM, 24 h)
41.9	C/C=C1/[C@H](OC2OC(CO)C(O)C(O)C2O)OC=C(C(=O)O)[C@H]1CC(=O)OCCc1ccc(O)c(O)c1 (stereo in doubt) [GS6, (2S,4S,E)-4-(2-(3,4-dihydroxyphenethoxy)-2-oxoethyl)-3-ethylidene-2{[(2R,3S,4R,5R,6S)-3,4,5-trihydroxy-6-(hydroxymethyl)tetrahydro-2H-pyran-2-yl]oxy}-3,4dihydro-2H-pyran-5-carboxylic acid]	–	24.8	45.3	36	–
21.7	C/C=C(/C=O)[C@@H](CC=O)CC(=O)OCCc1ccc(O)c(O)c1 [GS17, (3S,4E)-4-formyl-3-(2-oxoethyl)-4-hexenoic acid 2-(3,4-dihydroxyphenyl)ethyl ester, reference compound]	–	35.2	47.6	4.48	–
12.3	C/C=C(/C=O)[C@@H](CC=O)CC(=O)OCCCSC [GS28, (3S,4E)-4-formyl-3-(2-oxoethyl)-4-hexenoic acid 3-(methylthio)propyl ester]	–	48.7	47.8	–	–
16.1	C/C=C(/C=O)[C@@H](CC=O)CC(=O)OCCOc1ccccc1 [GS24, (3S,4E)-4-formyl-3-(2-oxoethyl)-4-hexenoic acid 2-phenoxyethyl ester]	–	60.5	80.5	–	highest suppressive activity
31.9	C/C=C(/C=O)[C@@H](CC=O)CC(=O)OCCc1ccc(O)cc1 [GS19, (3S,4E)-4-formyl-3-(2-oxoethyl)-4-hexenoic acid 2-(4-hydroxyphenyl)ethyl ester, reference compound]	–	–	55	133	–
80.8	C/C=C1/[C@H](O[C@@H]2O[C@H](CO)[C@@H](O)[C@H](O)[C@H]2O)OC=C(C(=O)OC)[C@H]1CC(=O)OCCc1ccc(O)c(O)c1 [GS1, oleuropein]	–	–	48.3	35	–
21.3	C/C=C(/C=O)[C@@H](CC=O)CC(=O)OCCCCCCCCCCCCCCCC [GS26, (3S,4E)-4-formyl-3-(2-oxoethyl)-4-hexenoic acid hexadecyl ester]	–	61	47.6	–	–

SMILES	Deoxyribose Degradation Assay IC50 [1] [μg extract/mL]	Effectiveness to suppress MCF7 cell growth (cell growth inhibition) ([2]; 50 uM, 24 h)	inhibition at 50 µM [2] [%]	inhibition at 50 µM [3] [%]	Ferric Reducing Power Antioxidant Assay RP0.5AU [4] [μg extract/mL]	Effectiveness to suppress MDA-MB-231 cell growth (cell growth inhibition) ([3]; 50 uM, 24 h)
C/C=C(/C=O)[C@@H](CC=O)CC(=O)SCCc1ccccc1 [GS27, S-phenethyl (3S,4E)-4-formyl-3-(2-oxoethyl)hex-4-enethioate]	16.4	best efficacy	83.2	61.4	–	–
